Source: patent publication US12453708B2, “Aminonaphthoquinone compounds for treatment and/or prevention of fibrosis diseases” (CALGENT BIOTECHNOLOGY CO., LTD., priority 2015, dated 2025)

How the values were obtained:
[1] = test system: BLM-induced lung fibrosis in mice; assay: Bleomycin (BLM)-induced lung fibrosis mice model; assay type: in vivo, C57BL/6JNarl mice; details: for fibrosis score, Mean ± SEM: H&E histology day 39
Description: FIGS. 8 (A) and (B) show the effect of L056 effect on fibrosis score of BLM-induced lung fibrosis in mice. C57BL/6 mice (8 weeks) were treated with bleomycin (BLM, 0.05 U/50 μl) or PBS (50 μl) by endotracheal administration. […] On day 39, the mice were sacrificed and, the histologic analysis of lung tissue was performed by hematoxylin-eosin (H&E) staining (original magnification, x100). […] (A), Histology fibrosis score plot; (B), H&E staining plot.
FIG. 9 (A) to (D) show the inhibitory effects on pro-fibrogenic mediators, collagen, CTGF, fibronectin and […], respectively. (A), H&E staining plot for collagen; (B), H&E staining plot for CTGF; (C), H&E staining plot for fibronectin; (D), H&E staining plot for α-SMA.
C57BL/6JNarl mice (8 weeks) were treated with bleomycin (BLM, 0.05 U/50 μl) or PBS (50 μl) by endotracheal administration. […] On day 39, the mice were sacrificed, and the histologic analysis of lung tissue was performed by hematoxylin-eosin (H&E) staining (original magnification, x100).

[2] = test system: TGF-β-induced collagen expression in WI-38 cells; assay: TGF-β-induced collagen expression in WI-38 cells (Western blot, immunofluorescence); assay type: cell-based, human; details: WI-38 lung fibroblasts, 0.3, 1, 3 or 10 μM, TGF-β (10 ng/mL)
Description: FIGS. 4 (A), (B) and (C) show the effect of L056 on TGF-β-induced collagen expression in WI-38 cells. WI-38 lung fibroblasts were incubated with different concentrations of L056 (0.3, 1, 3 or 10 μM) for 30 min before and during incubation for 2 h with TGF-β (10 ng/mL). […] (A), Western blot plot; (B), Quantitative assay of Western blot; (C), Immunofluorescence plot. WI-38 cells, a normal human embryonic lung fibroblast cell line, were obtained from American Type Culture Collection (Manassas, VA). Cells were grown in MEM nutrient mixture, containing 10% FCS, 2 mM L-glutamine, 0.1 mM NEAA, 1 mM sodium pyruvate, 50 U/ml penicillin G, and 100 µg/ml streptomycin, in a humidified 37° C. incubator with 5% CO2 Cells were used between passages 18 and 30 for all experiments. After reaching confluence, cells were seeded onto 6-cm dishes for immunoblotting. Western blot analyses were performed as described previously (Chen B C, Chang Y S, Kang J C, Hsu M J, Sheu J R, Chen T L, et al. Peptidoglycan induces nuclear factor-kappaB activation and cyclooxygenase-2 expression via Ras, Raf-1, and ERK in RAW 264.7 macrophages. J Biol Chem 2004; 279:20889-97). […] The immunoreactivity was detected using enhanced chemiluminescence (ECL) following the manufacturer's instructions. Quantitative data were obtained using a computing densitometer with scientific imaging systems (Kodak, Rochester, NY). […]

[3] = test system: CCl4-induced liver fibrosis in mice; assay: CCl4-induced liver fibrosis in mice (therapeutic model); assay type: in vivo, C57BL/6JNarl mice; details: for fibrosis score, Mean ± SEM: day 43
Description: (A) sirius red stain; (B), the inhibition of MPTOL056 on CCl4-induced liver fibrosis. […] C57BL/6JNarl mice (8 weeks) were treated with CCl4 (1 μl/μg/BW, q.w.) or PBS (1 μl/μg/BW, q.w.) by i.p. injection for 6 weeks. MPTOL056 (25, 50 and 100 mg/kg/day, q.d.) and silymarin (200 mg/kg/day, q.d.) were administered orally to CCl4-injected mice from 2 weeks to 6 weeks. On day 43, the mice were sacrificed, and the α-SMA analysis of liver tissue was performed by IHC staining (original magnification, x100) (see FIG. 11). […]

[4] = BLM mice, 25 mg (mg/kg/day, q.d., oral, days 10 to 38)
[5] = BLM mice, 50 mg (mg/kg/day, q.d., oral, days 10 to 38)
[6] = BLM mice, 100 mg (mg/kg/day, q.d., oral, days 10 to 38)
[7] = CCl4 mice, 25 mg (mg/kg/day, q.d., oral, weeks 2 to 6)
[8] = CCl4 mice, 50 mg (mg/kg/day, q.d., oral, weeks 2 to 6)
[9] = CCl4 mice, 100 mg (mg/kg/day, q.d., oral, weeks 2 to 6)

SMILES: O=C(Nc1ccncc1)c1ccc(CNC2=C(Cl)C(=O)c3ccccc3C2=O)cc1 [Example L056, 4-(((3-chloro-1,4-dioxo-1,4-dihydronaphthalen-2-yl)amino)methyl)-N-(pyridin-4-yl)benzamide]
- Efficacy % (reduction of fibrosis score) [1, 4]: 50.94%
- fibrosis score, Mean ± SEM [1, 4]: 3.27 ± 0.03
- Efficacy % (reduction of fibrosis score) [1, 5]: 83.90%
- fibrosis score, Mean ± SEM [1, 5]: 2.03 ± 0.21
- Efficacy % (reduction of fibrosis score) [1, 6]: 67.38%
- fibrosis score, Mean ± SEM [1, 6]: 2.65 ± 0.17
- efficacy in the inhibition compared with PBS control ([1]; BLM mice, FIG. 8(B)): significantly higher than the PBS control
- pro-fibrogenic mediators expression (collagen, CTGF, fibronectin, α-SMA) in lung ([1]; bleomycin-induced mice lung fibrosis model, FIG. 9): inhibited
- inhibition of BLM-induced lung fibrosis (in words) ([1]; mice, 25, 50, 100 mg/kg/day oral, FIG. 8(A)): inhibits BLM-induced lung fibrosis in a dose-dependent manner
- TGF-β-induced collagen production/expression [2]: significantly inhibited
- TGF-β-induced collagen production/expression ([2]; listed as MPTOL056): inhibited
- Efficacy % (reduction of fibrosis score) [3, 7]: 45.00%
- fibrosis score, Mean ± SEM [3, 7]: 2.40 ± 0.53
- Efficacy % (reduction of fibrosis score) [3, 8]: 46.67%
- fibrosis score, Mean ± SEM [3, 8]: 2.35 ± 0.25
- Efficacy % (reduction of fibrosis score) [3, 9]: 68.33%
- fibrosis score, Mean ± SEM [3, 9]: 1.70 ± 0.18
- efficacy in inhibition compared with silymarin ([3]; CCl4 mice, silymarin 200 mg/kg/day, FIG. 10(B)): higher than silymarin
- inhibition of CCl4-induced liver fibrosis (in words) ([3]; mice, 25, 50 and 100 mg/kg/day oral, FIG. 10(B)): dose-dependent
